Measurements reported in PubChem BioAssay AID248 (DTP/NCI, 2004).
Values joined by “and” are separate entries in the source; they are usually repeats but may differ in a detail not shown here. Identical values can stand only once. Inconclusive results and toxic doses are left out. Cut-off read from the data, not from the text of the source: active = T/C of 150% or more; inactive = T/C below 125%.

System: L1210 leukemia ip in BDF1 mice, survival T/C
Test: NCI In Vivo Anticancer Drug Screen. Data for tumor model L1210 Leukemia (intraperitoneal) in B6D2F1 (BDF1) mice
Conditions: endpoint: mean survival time, higher = longer survival
Outline: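 Value reflects the ratio of survival in compound-treated mice to survival in vehicle-treated controls, with both groups carrying the same transplanted tumor.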

[1] = dose: 50.0 mg/kg/injection, schedule: Q01DX009 (ip), vehicle: Klucel (hydroxypropylcellulose) (HPC)
[2] = dose: 100.0 mg/kg/injection, schedule: Q01DX001 (ip), vehicle: Klucel (hydroxypropylcellulose) (HPC)
[3] = dose: 100.0 mg/kg/injection, schedule: Q01DX009 (ip), vehicle: Klucel (hydroxypropylcellulose) (HPC)
[4] = dose: 100.0 mg/kg/injection, schedule: Q04DX003 (ip), vehicle: Klucel (hydroxypropylcellulose) (HPC)
[5] = dose: 200.0 mg/kg/injection, schedule: Q01DX009 (ip), vehicle: Klucel (hydroxypropylcellulose) (HPC)
[6] = dose: 200.0 mg/kg/injection, schedule: Q04DX003 (ip), vehicle: Klucel (hydroxypropylcellulose) (HPC)
[7] = dose: 100.0 mg/kg/injection, schedule: Q01DX001 (ip), vehicle: carboxymethylcellulose (CMC)
[8] = dose: 200.0 mg/kg/injection, schedule: Q01DX001 (ip), vehicle: carboxymethylcellulose (CMC)
[9] = dose: 100.0 mg/kg/injection, schedule: Q01DX001 (ip), vehicle: saline
[10] = dose: 200.0 mg/kg/injection, schedule: Q01DX001 (ip), vehicle: saline
[11] = dose: 400.0 mg/kg/injection, schedule: Q01DX001 (ip), vehicle: saline
[12] = dose: 300.0 mg/kg/injection, schedule: Q01DX001 (ip), vehicle: carboxymethylcellulose (CMC)
[13] = dose: 200.0 mg/kg/injection, schedule: Q01DX001 (ip), vehicle: Klucel (hydroxypropylcellulose) (HPC)
[14] = dose: 400.0 mg/kg/injection, schedule: Q01DX001 (ip), vehicle: Klucel (hydroxypropylcellulose) (HPC)
[15] = dose: 25.0 mg/kg/injection, schedule: Q01DX009 (ip), vehicle: Klucel (hydroxypropylcellulose) (HPC)
[16] = dose: 50.0 mg/kg/injection, schedule: Q01DX009 (ip), vehicle: saline
[17] = dose: 100.0 mg/kg/injection, schedule: Q04DX003 (ip), vehicle: saline
[18] = dose: 200.0 mg/kg/injection, schedule: Q04DX003 (ip), vehicle: saline
[19] = dose: 400.0 mg/kg/injection, schedule: Q04DX003 (ip), vehicle: saline

Measured: T/C

O=C(O)c1c(O)c(-c2ccccc2)nc2ccccc12
inactive: dose: 25.0 mg/kg/injection, schedule: Q01DX001 (ip), vehicle: Klucel (hydroxypropylcellulose) (HPC) 90 % of control | dose: 50.0 mg/kg/injection, schedule: Q01DX001 (ip), vehicle: Klucel (hydroxypropylcellulose) (HPC) 102 % of control | [1] 101 % of control | [2] 86 % of control | [3] 100 % of control | [4] 98 % of control | [5] 103 % of control | [6] 100 % of control

CCCCC(=O)N/N=C\c1cc(Cl)cc(Cl)c1
inactive: [7] 100 % of control | [8] 93 % of control | dose: 400.0 mg/kg/injection, schedule: Q01DX001 (ip), vehicle: carboxymethylcellulose (CMC) 96 % of control

Nc1c[nH]c(=O)[nH]c1=O
inactive: [9] 89 % of control | [10] 95 % of control | [11] 97 % of control

O=C(O)c1cccc(Nc2ccccc2C(=O)O)c1
inactive: [7] 90 % of control | [8] 92 % of control

CCOP(=O)(CN1CCCCC1)OCC
inactive: dose: 100.0 mg/kg/injection, schedule: Q04DX002 (ip), vehicle: saline 104 % of control | dose: 200.0 mg/kg/injection, schedule: Q04DX002 (ip), vehicle: saline 96 % of control | dose: 400.0 mg/kg/injection, schedule: Q04DX002 (ip), vehicle: saline 104 % of control

COc1cc2c(cc1OC)C(CC1=C(c3ccccc3)CN3CCc4cc(OC)c(OC)cc4C3C1)NCC2 (centres undefined)
inactive: dose: 4.0 mg/kg/injection, schedule: Q04DX003 (ip), vehicle: water 106 % of control and 102 % of control | dose: 8.0 mg/kg/injection, schedule: Q04DX003 (ip), vehicle: water 98 % of control and 101 % of control | dose: 16.0 mg/kg/injection, schedule: Q04DX003 (ip), vehicle: water 106 % of control and 103 % of control | dose: 32.0 mg/kg/injection, schedule: Q04DX003 (ip), vehicle: water 102 % of control and 96 % of control | dose: 64.0 mg/kg/injection, schedule: Q04DX003 (ip), vehicle: water 96 % of control and 95 % of control | dose: 75.0 mg/kg/injection, schedule: Q01DX001 (ip), vehicle: saline 101 % of control and 97 % of control | dose: 150.0 mg/kg/injection, schedule: Q01DX001 (ip), vehicle: saline 94 % of control and 92 % of control

C1OC1[C@@H]1CC[C@H]1C1CO1 (some centres undefined)
inactive: dose: 50.0 mg/kg/injection, schedule: Q01DX001 (ip), vehicle: saline 98 % of control and 112 % of control | dose: 51.1 mg/kg/injection, schedule: Q01DX Z (ip), vehicle: carboxymethylcellulose (CMC) 103 % of control | dose: 51.1 mg/kg/injection, schedule: Q01DX Z (ip), vehicle: methylcellulose (MC) 109 % of control | dose: 76.6 mg/kg/injection, schedule: Q01DX Z (ip), vehicle: carboxymethylcellulose (CMC) 114 % of control | dose: 76.6 mg/kg/injection, schedule: Q01DX Z (ip), vehicle: methylcellulose (MC) 118 % of control | dose: 88.0 mg/kg/injection, schedule: Q01DX001 (ip), vehicle: saline 107 % of control | [9] 112 % of control and 118 % of control | dose: 115.0 mg/kg/injection, schedule: Q01DX Z (ip), vehicle: methylcellulose (MC) 106 % of control | dose: 133.0 mg/kg/injection, schedule: Q01DX001 (ip), vehicle: saline 109 % of control

O=C(OC1C2C=CC1C1C(=O)NC21)c1ccccc1 (centres undefined)
inactive: dose: 75.0 mg/kg/injection, schedule: Q01DX001 (ip), vehicle: carboxymethylcellulose (CMC) 97 % of control | dose: 150.0 mg/kg/injection, schedule: Q01DX001 (ip), vehicle: carboxymethylcellulose (CMC) 102 % of control | [12] 113 % of control

Cc1cc(C(=O)O)c(C)n1-c1ccccc1C(=O)O
inactive: [1] 102 % of control | [2] 103 % of control | [3] 89 % of control | [13] 92 % of control | [5] 93 % of control | [14] 94 % of control

COc1c2c(c3c(c1OC)c(=O)c1ccccc1n3C)OCO2
inactive: dose: 50.0 mg/kg/injection, schedule: Q01DX001 (ip), vehicle: carboxymethylcellulose (CMC) 96 % of control | [7] 93 % of control | [8] 107 % of control | [12] 102 % of control

CN1CCN(C(=O)C(c2ccccc2)C2(O)CCCC2)CC1 (centres undefined)
inactive: dose: 5.0 mg/kg/injection, schedule: Q01DX001 (ip), vehicle: saline 96 % of control | dose: 10.0 mg/kg/injection, schedule: Q01DX001 (ip), vehicle: saline 105 % of control

O=C(COc1ccc(Cl)cc1Cl)Nc1ccc(NC(=O)COc2ccc(Cl)cc2Cl)cc1
inactive: dose: 12.5 mg/kg/injection, schedule: Q01DX009 (ip), vehicle: Klucel (hydroxypropylcellulose) (HPC) 87 % of control | dose: 12.5 mg/kg/injection, schedule: Q04DX002 (ip), vehicle: Klucel (hydroxypropylcellulose) (HPC) 95 % of control | [15] 94 % of control | dose: 25.0 mg/kg/injection, schedule: Q04DX002 (ip), vehicle: Klucel (hydroxypropylcellulose) (HPC) 95 % of control | [1] 87 % of control | dose: 50.0 mg/kg/injection, schedule: Q04DX002 (ip), vehicle: Klucel (hydroxypropylcellulose) (HPC) 92 % of control

CCOP(=O)(OCC)OCCCN(CC)CC
inactive: [16] 101 % of control | dose: 100.0 mg/kg/injection, schedule: Q01DX009 (ip), vehicle: saline 96 % of control and 114 % of control | [17] 101 % of control | dose: 200.0 mg/kg/injection, schedule: Q01DX009 (ip), vehicle: saline 94 % of control and 105 % of control | [18] 98 % of control

N#C/C(N)=C(/C#N)N=Cc1ccccc1
inactive: [2] 97 % of control | [13] 98 % of control | [14] 98 % of control

Cc1cc(N(C)C)ccc1C=O
inactive: [3] 94 % of control | [4] 97 % of control | [5] 105 % of control | [6] 105 % of control | dose: 400.0 mg/kg/injection, schedule: Q01DX009 (ip), vehicle: Klucel (hydroxypropylcellulose) (HPC) 103 % of control | dose: 400.0 mg/kg/injection, schedule: Q04DX003 (ip), vehicle: Klucel (hydroxypropylcellulose) (HPC) 98 % of control

ClCCN1CCOCC1
inactive: dose: 25.0 mg/kg/injection, schedule: Q01DX009 (ip), vehicle: saline 97 % of control | dose: 25.0 mg/kg/injection, schedule: Q04DX003 (ip), vehicle: saline 93 % of control and 106 % of control | [16] 100 % of control | dose: 50.0 mg/kg/injection, schedule: Q04DX003 (ip), vehicle: saline 93 % of control and 111 % of control | [17] 98 % of control and 104 % of control and 108 % of control

COc1ccccc1C(=S)N1CCCCC1
inactive: [17] 97 % of control | [18] 89 % of control | [19] 92 % of control

COC(=O)CCC(C(=O)OC)P(=O)(OC(C)C)OC(C)C (centres undefined)
inactive: [9] 96 % of control | [10] 102 % of control | [11] 86 % of control

Cc1cccc(NC(=O)/C=C/c2ccccc2)n1
inactive: [15] 96 % of control | [1] 89 % of control | [3] 103 % of control and 91 % of control | dose: 100.0 mg/kg/injection, schedule: Q04DX002 (ip), vehicle: Klucel (hydroxypropylcellulose) (HPC) 91 % of control

COc1ccc(/C=N/n2c(C)cc(C)c(C#N)c2=O)c(OC)c1OC
inactive: dose: 100.0 mg/kg/injection, schedule: Q01DX009 (ip), vehicle: saline with Tween-80 100 % of control | dose: 100.0 mg/kg/injection, schedule: Q04DX003 (ip), vehicle: saline with Tween-80 118 % of control | dose: 200.0 mg/kg/injection, schedule: Q01DX009 (ip), vehicle: saline with Tween-80 91 % of control | dose: 200.0 mg/kg/injection, schedule: Q04DX003 (ip), vehicle: saline with Tween-80 103 % of control | dose: 400.0 mg/kg/injection, schedule: Q01DX009 (ip), vehicle: saline with Tween-80 107 % of control | dose: 400.0 mg/kg/injection, schedule: Q04DX003 (ip), vehicle: saline with Tween-80 106 % of control

CCOc1nc(OCC)c2[nH]cnc2n1
inactive: [9] 101 % of control | [10] 96 % of control | [11] 102 % of control

Cn1cnnc1N
inactive: [17] 97 % of control | [18] 101 % of control | [19] 103 % of control

Nc1nc2c(nc([Se])n2C2OC(CO)C(O)C2O)c(=O)[nH]1 (centres undefined)
inactive: dose: 100.0 mg/kg/injection, schedule: Q01DX005 (ip), vehicle: saline 98 % of control | dose: 200.0 mg/kg/injection, schedule: Q01DX005 (ip), vehicle: saline 98 % of control
